Our source for the carcinogen call values is PubChem BioAssay AID1259411 (Chemical Carcinogenesis Research Information System (CCRIS), 2018).

The test system of the data set is rodent carcinogenicity bioassays, tumor incidence. As to the kind of experiment: CCRIS carcinogenicity studies. An outline of the steps: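 NCI-built, expert-reviewed records of carcinogenicity and related test outcomes (mutagenicity, tumor promotion/inhibition) compiled from published and report sources, historical span 1985-2011, not updated.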

Active and inactive are the calls of the source. The rule behind the calls is not given here.

With `CC(C)(C)c1cc(O)ccc1O`, the carcinogen call (Species: MOUSE, Strain/Sex: B6C3F1/FEMALE, Route: ORAL, Dose: 0, 1250, 2500, 5000 PPM IN DIET FOR 105 WK (STUDY DURATION: 105 WK), Dose: 0, 1250, 2500, 5000 PPM IN DIET FOR 105 WK (STUDY DURATION: 105 WK)) was “inactive; negative”; the carcinogen call (Species: MOUSE, Strain/Sex: B6C3F1/MALE, Route: ORAL, Dose: 0, 1250, 2500, 5000 PPM IN DIET FOR 104 WK (STUDY DURATION: 104 WK), Dose: 0, 1250, 2500, 5000 PPM IN DIET FOR 104 WK (STUDY DURATION: 104 WK)) is “inactive; negative”; the carcinogen call (Species: RAT, Strain/Sex: F344/FEMALE, Route: ORAL, Dose: 0, 1250, 2500, 5000 PPM IN DIET FOR 129 WK ADMINISTERED TO RATS ALSO EXPOSED IN UTERO THROUGH MOTHERS THAT RECEIVED THE, Dose: 0, 1250, 2500, 5000 PPM IN DIET FOR 129 WK ADMINISTERED TO RATS ALSO EXPOSED IN UTERO THROUGH MOTHERS THAT RECEIVED THE) was “inactive; negative”; the carcinogen call (Species: RAT, Strain/Sex: F344/FEMALE, Route: ORAL, Dose: 0, 5000 PPM IN DIET FOR 128 WK, CONTROL AND DOSED GROUPS FED AD LIBITUM (STUDY DURATION: 128 WK)) is “inactive; negative”; the carcinogen call (Species: RAT, Strain/Sex: F344/FEMALE, Route: ORAL, Dose: 0, 5000 PPM IN DIET FOR 128 WK, CONTROL GROUP WAS WEIGHT-MATCHED TO DOSED GROUP (STUDY DURATION: 128 WK)) is “inactive; negative”; the carcinogen call (Species: RAT, Strain/Sex: F344/FEMALE, Route: ORAL, Dose: 0, 5000 PPM IN DIET FOR 130 WK, CONTROL GROUP DIET RESTRICTED TO LIMIT WEIGHTS TO 85% OF AD LIBITUM-FED GROUPS (STUDY DU) is “inactive; negative”. Besides, the carcinogen call reads like this: (Species: RAT, Strain/Sex: F344/MALE, Route: ORAL, Dose: 0, 1250, 2500, 5000 PPM IN DIET FOR 123 WK ADMINISTERED TO RATS ALSO EXPOSED IN UTERO THROUGH MOTHERS THAT RECEIVED THE, Dose: 0, 1250, 2500, 5000 PPM IN DIET FOR 123 WK ADMINISTERED TO RATS ALSO EXPOSED IN UTERO THROUGH MOTHERS THAT RECEIVED THE) “inactive; negative”; (Species: RAT, Strain/Sex: F344/MALE, Route: ORAL, Dose: 0, 5000 PPM IN DIET FOR 102 WK, CONTROL AND DOSED GROUPS FED AD LIBITUM (STUDY DURATION; 122 WK), Dose: 0, 5000 PPM IN DIET FOR 102 WK, CONTROL AND DOSED GROUPS FED AD LIBITUM (STUDY DURATION; 122 WK)) “inactive; negative”; (Species: RAT, Strain/Sex: F344/MALE, Route: ORAL, Dose: 0, 5000 PPM IN DIET FOR 122 WK, CONTROL GROUP WAS WEIGHT-MATCHED TO DOSED GROUP (STUDY DURATION: 122 WK)) “inactive; negative”; (Species: RAT, Strain/Sex: F344/MALE, Route: ORAL, Dose: 0, 5000 PPM IN DIET FOR 130 WK, CONTROL GROUP DIET RESTRICTED TO LIMIT WEIGHTS TO 85% OF AD LIBITUM-FED GROUPS (STUDY DU) “inactive; negative”.
With `c1ccc2nc3ccccc3cc2c1`, where the note is “Species: RAT, Strain/Sex: OSBORNE-MENDEL/FEMALE, Route: LUNG IMPLANT, Dose: 0, 0.2, 1.0, 5.0 MG IN BEESWAX/TRICAPRYLIN (STUDY DURATION: LIFETIME), Dose: 0, 0.2, 1.0, 5.0 MG IN BEESWAX/TRICAPRYLIN (STUDY DURATION: LIFETIME)”, the carcinogen call is “inactive; negative”.
Consider `C[C@]12C=CC(=O)C=C1CC[C@@H]1[C@@H]2[C@@H](O)C[C@@]2(C)[C@H]1CC[C@]2(O)C(=O)CO`, for which the carcinogen call is, setting by setting: (Species: RAT, Strain/Sex: SPRAGUE-DAWLEY/FEMALE, Route: GAVAGE, Dose: 0, 3 MG/KG ADMINISTERED 1, 2, 4.5 OR 9 TIMES PER MO FOR 18 MO TO GIVE MEDIAN TOTAL DOSES OF 54, 108, 234, 468 MG/KG (STU, Dose: 0, 3 MG/KG ADMINISTERED 1, 2, 4.5 OR 9 TIMES PER MO FOR 18 MO TO GIVE MEDIAN TOTAL DOSES OF 54, 108, 234, 468 MG/KG (STU) “inactive; negative”; (Species: RAT, Strain/Sex: SPRAGUE-DAWLEY/MALE, Route: ORAL, Dose: 0, 40 UG/ML IN DRINKING WATER FOR AN AVERAGE DAILY DOSE OF 368 UG/KG FOR 104 WK (STUDY DURATION: 104 WK), Tumor Site: Type of Lesion: LIVER: HEPATOCELLULAR ADENOMA OR CARCINOMA) “active; positive”.
As for `O=c1[nH]c2ccccc2c2ccccc12`, the carcinogen call by setting is: (Species: MOUSE, Strain/Sex: CD-1/FEMALE, Route: INTRAPERITONEAL, Dose: 0, 5, 10 AND 20 µL OF A 0.05 MOLAR SOLUTION ON DAYS 1, 8 AND 15 OF LIFE RESPECTIVELY (TOTAL DOSE: 1.75 UMOL) (STUDY DURA, Dose: 0, 5, 10 AND 20 µL OF A 0.05 MOLAR SOLUTION ON DAYS 1, 8 AND 15 OF LIFE RESPECTIVELY (TOTAL DOSE: 1.75 UMOL) (STUDY DURA) “inactive; negative”; (Species: MOUSE, Strain/Sex: CD-1/MALE, Route: INTRAPERITONEAL, Dose: 0, 5, 10 AND 20 µL OF A 0.05 MOLAR SOLUTION ON DAYS 1, 8 AND 15 OF LIFE RESPECTIVELY (TOTAL DOSE: 1.75 UMOL) (STUDY DURA, Dose: 0, 5, 10 AND 20 µL OF A 0.05 MOLAR SOLUTION ON DAYS 1, 8 AND 15 OF LIFE RESPECTIVELY (TOTAL DOSE: 1.75 UMOL) (STUDY DURA) “inactive; negative”.
Consider `CC(C)Nc1nc(Cl)nc(NCC(=O)O)n1`, for which the carcinogen call is “inactive; negative” (Species: Mouse, Strain/Sex: Crl:CD-1(ICR)BR/Female, Route: Oral, Dose: 0, 10, 30, 300, 900 ppm in diet for 18 mo, Dose: 0, 10, 30, 300, 900 ppm in diet for 18 mo); “active; positive (only at highest dose)” (Species: Mouse, Strain/Sex: Crl:CD-1(ICR)BR/Male, Route: Oral, Dose: 0, 10, 30, 300, 900 ppm in diet for 18 mo, Dose: 0, 10, 30, 300, 900 ppm in diet for 18 mo, Tumor Site: Type of Lesion: Liver: Multiple hepatocellular adenomas (3/60 at 900 ppm vs. 0/60 in controls) Blood Vessels: Hemangiosarcomas (2/60 at); “inactive; negative” (Species: Rat, Strain/Sex: Crl:CD BR/Female, Route: Oral, Dose: 0, 5, 15, 30, 300, 900 ppm in diet for 24 mo, Dose: 0, 5, 15, 30, 300, 900 ppm in diet for 24 mo); “active; positive (at highest dose only); ca dpr describes as a possible adverse effect” (Species: Rat, Strain/Sex: Crl:CD BR/Male, Route: Oral, Dose: 0, 5, 15, 30, 300, 900 ppm in diet for 24 mo, Dose: 0, 5, 15, 30, 300, 900 ppm in diet for 24 mo, Tumor Site: Type of Lesion: Thyroid: Thyroid follicular cell adenoma).
In the case of `Nc1nc2ncc(CNc3ccc(C(=O)N(N=O)[C@@H](CCC(=O)O)C(=O)O)cc3)nc2c(=O)[nH]1`, the carcinogen call (Species: RAT, Route: ORAL, Tumor Site: Type of Lesion: LIVER) was “active; positive”.
